# Measured values taken from patent publication US8609680B2, “2,3-dihydro-1H-inden-1-yl-2,7-diazaspiro[3.5] nonane derivatives” (Pfizer Inc., priority 2010, dated 2013).
# pIC50, pKi: −log10 of the molar value. Like-named read-outs stand apart in the source and are kept apart here.
# Experiments:
# human GHSR1a [1] = molecular target: T1, human GHSR1a (Homo sapiens, UniProt Q92847); test: Human Ghrelin SPA Binding Assay
# T1 construct: expressed in transfected cells; host or cells: HEK293 Tetracycline-Inducible cell line, used as membranes
# T1 sequence (Q92847 whole entry): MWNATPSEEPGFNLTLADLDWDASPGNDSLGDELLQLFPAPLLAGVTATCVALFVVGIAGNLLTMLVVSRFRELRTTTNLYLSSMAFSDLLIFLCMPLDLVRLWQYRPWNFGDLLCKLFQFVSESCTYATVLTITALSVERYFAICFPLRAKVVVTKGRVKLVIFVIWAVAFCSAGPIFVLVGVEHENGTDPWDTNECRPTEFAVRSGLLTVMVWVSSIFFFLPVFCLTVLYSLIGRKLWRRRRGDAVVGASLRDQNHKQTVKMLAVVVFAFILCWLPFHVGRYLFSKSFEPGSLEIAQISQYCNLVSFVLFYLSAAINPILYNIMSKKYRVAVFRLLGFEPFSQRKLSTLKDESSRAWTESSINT
# Source text: The SPA format was utilized for high throughput screening of test compounds and filter binding served for more comprehensive binding characterization.
# Human Ghrelin SPA Binding Assay
# human GHSR1a [2] = molecular target: T1, human GHSR1a; test: Human Ghrelin Functional Assay (DELFIA GTP-binding assay); assay type: biochemical; conditions: GTP-Europium exchange, human GHSR1a membranes, with and without ghrelin at EC80
# Method: Human Ghrelin Functional Assay
# To measure the ability of test compounds in the present invention to modulate the activity of human GHSR1a (agonize, antagonize, partially agonize, inversely agonize), a DELFIA GTP-binding assay (Perkin Elmer, AD0260 and AD0261) is performed. The assay monitors the ligand-dependent exchange of GDP for GTP. GPCR activation results in an increase in fluorescence as receptor-bound GDP is replaced by Europium-labeled GTP.
# Ghrelin functional assays are performed in a final volume of 39.5 μl containing 720 ng human GHSR1a (HEK293 Tetracycline-Inducible cell line expressing the human growth secretagogue receptor la, prepared as membranes), 9 nM GTP-Europium and varying concentrations of test compound or vehicle. To test for receptor antagonism, membranes are incubated in the presence of agonist ghrelin (Anaspec, 24158) at the EC80 concentration, plus test compound or vehicle.
# Briefly, test compounds are prepared at room temperature in 384-well plates (Matrix, 4340). […] Samples are then transferred as 6 μl to 384-well filter plates (Pall, 5071) containing 30 μl of 24 μg/ml hGHSR1a membrane and 0.35 mg/ml saponin (Perkin Elmer, AD0261) in basal buffer.
# The mixture is incubated 24 minutes at room temperature with gentle shaking, followed by the addition of 3.5 μl of 100 nM GTP-Europium in 50 mM HEPES, pH 7.4. Samples are shielded from light and incubated for 90 minutes further at room temperature with gentle shaking. The reactions are suctioned dry with vacuum, washed three times with 75 μl ice cold 1× GTP Wash Solution (Perkin Elmer, AD0261), and immediately read on the Envision 2101 Multilabel Reader (Perkin Elmer) using excitation filter 320 nm and emission filter 615 nm.
# [3] = SPA format, [125I] ghrelin displacement, human GHSR1a membranes, Ki=IC50/(1+[ligand]/Kd)
Compound,pIC50 (human GHSR1a [1]),pKi (human GHSR1a [1]),functional comment (human GHSR1a [2]),"pIC50 (human GHSR1a [1]; SPA format, [125I] ghrelin displacement, human GHSR1a membranes from HEK293 Tetracycline-Inducible cell line)",pKi (human GHSR1a [1]; [3])
Cc1cc(-c2ccc3c(c2)CC[C@H]3N2CC3(CCN(C(=O)Cc4cn5nc(C)sc5n4)CC3)C2)nc(C)n1 [Example 3AO],7.77,7.82,inverse agonist,–,–
Cc1ccn2cc(CC(=O)N3CCC4(CC3)CN([C@@H]3CCc5cc(-c6cc(C#N)ncn6)ccc53)C4)nc2c1 [Example 3AP],7.57,7.61,inverse agonist,–,–
Cc1cc(-c2ccc3c(c2)CC[C@H]3N2CC3(CCN(C(=O)Cc4cn5c(C)c(C)sc5n4)CC3)C2)ncn1 [Example 3AR],7.47,7.52,inverse agonist,–,–
Cc1cc(-c2ccc3c(c2)CC[C@H]3N2CC3(CCN(C(=O)Cc4ccc5c(n4)OCCO5)CC3)C2)ncn1 [Example 3D],7.99,8.05,inverse agonist,–,–
"Cc1nccc(-c2ccc3c(c2)CC[C@H]3N2CC3(CCN(C(=O)Cc4ccc5c(n4)OCCO5)CC3)C2)n1 [Example 3E, 6-(2-{2-[(1R)-5-(2-methylpyrimidin-4-yl)-2,3-dihydro-1H-inden-1-yl]-2,7-diazaspiro[3.5]non-7-yl}-2-oxoethyl)-2,3-dihydro[1,4]dioxino[2,3-b]pyridine]",7.68,7.73,inverse agonist,–,–
Cc1cc(-c2ccc3c(c2)CC[C@H]3N2CC3(CCN(C(=O)Cc4cn5cc(C)sc5n4)CC3)C2)ncn1 [Example 3F],–,8.36,inverse agonist,8.30,–
COc1ccc(CC(=O)N2CCC3(CC2)CN([C@@H]2CCc4cc(-c5ncccn5)ccc42)C3)nc1 [Example 3G],7.67,–,inverse agonist,–,–
COc1ccc(CC(=O)N2CCC3(CC2)CN([C@@H]2CCc4cc(-c5ncc(C)cn5)ccc42)C3)nc1 [Example 3H],8.02,–,inverse agonist,–,8.04
Cc1ccc(CC(=O)N2CCC3(CC2)CN([C@@H]2CCc4cc(-c5ncccn5)ccc42)C3)nc1 [Example 3I],7.51,–,inverse agonist,–,7.56
Cc1cc(-c2ccc3c(c2)CC[C@H]3N2CC3(CCN(C(=O)Cc4cn5ccccc5n4)CC3)C2)ncn1 [Example 3L],7.64,7.70,inverse agonist,–,–
COc1ccc(CC(=O)N2CCC3(CC2)CN([C@@H]2CCc4cc(-c5ccn(C)n5)ccc42)C3)nc1 [Example 3N],7.08,7.15,inverse agonist,–,–
COc1ccc(CC(=O)N2CCC3(CC2)CN([C@@H]2CCc4cc(-c5nccc(C)n5)ccc42)C3)nc1 [Example 3S],7.75,7.81,inverse agonist,–,–
Cc1ccnc(-c2ccc3c(c2)CC[C@H]3N2CC3(CCN(C(=O)Cc4ccc5c(n4)OCCO5)CC3)C2)n1 [Example 3U],8.09,8.16,inverse agonist,–,–
CCc1cnc(-c2ccc3c(c2)CC[C@H]3N2CC3(CCN(C(=O)Cc4ccc(OC)cc4)CC3)C2)nc1 [Example 3W],7.76,7.83,inverse agonist,–,–
Cc1ccn2cc(CC(=O)N3CCC4(CC3)CN([C@@H]3CCc5cc(-c6ncccn6)ccc53)C4)nc2c1 [Example 3X],7.44,7.50,inverse agonist,–,–
"Cc1cc(-c2ccc3c(c2)CC[C@H]3N2CC3(CCN(C(=O)Cc4cn5nc(C)sc5n4)CC3)C2)ncn1 [Example 3Z, 7-[(2-methylimidazo[2,1-b][1,3,4]thiadiazol-6-yl)acetyl]-2-[(1R)-5-(6-methylpyrimidin-4-yl)-2,3-dihydro-1H-inden-1-yl]-2,7-diazaspiro[3.5]nonane]",8.17,8.22,inverse agonist,–,–

# Further lines, results first:
pIC50 (human GHSR1a [1]),pKi (human GHSR1a [1]),functional comment (human GHSR1a [2]),"pIC50 (human GHSR1a [1]; SPA format, [125I] ghrelin displacement, human GHSR1a membranes from HEK293 Tetracycline-Inducible cell line)",pKi (human GHSR1a [1]; [3]),Compound
7.94,7.98,inverse agonist,–,–,CCc1ccc(CC(=O)N2CCC3(CC2)CN([C@@H]2CCc4cc(-c5ncccn5)ccc42)C3)nc1 [Example 5B]
–,–,inverse agonist,–,7.98,Cc1ccc(CC(=O)N2CCC3(CC2)CN([C@@H]2CCc4cc(-n5nccn5)ccc42)C3)nc1 [Example 5C]
7.40,7.48,inverse agonist,–,–,COc1ccc(CC(=O)N2CCC3(CC2)CN([C@@H]2CCc4cc(-c5cc(C)nc(C)n5)ccc42)C3)nc1 [Example 5G]
7.43,7.49,inverse agonist,–,–,Cc1ccn2cc(CC(=O)N3CCC4(CC3)CN([C@@H]3CCc5cc(-n6nccn6)ccc53)C4)nc2c1 [Example 6C]
8.46,–,inverse agonist,–,8.48,COc1ccc(CC(=O)N2CCC3(CC2)CN([C@@H]2CCc4cc(-n5nccn5)ccc42)C3)nc1 [Example 6D]
8.42,8.51,inverse agonist,–,–,COc1ccc(CC(=O)N2CCC3(CC2)CN([C@@H]2CCc4cc(-n5nccn5)ccc42)C3)cc1 [Example 6E]
8.22,8.29,inverse agonist,–,–,Cc1cn2cc(CC(=O)N3CCC4(CC3)CN([C@@H]3CCc5cc(-n6nccn6)ccc53)C4)nc2s1 [Example 6F]
7.66,7.71,inverse agonist,–,–,COc1ccc(CC(=O)N2CCC3(CC2)CN([C@@H]2CCc4cc(-n5nccn5)ccc42)C3)c(NC(C)=O)c1 [Example 6H]
7.64,7.69,inverse agonist,–,–,Cc1ccn2cc(CC(=O)N3CCC4(CC3)CN([C@@H]3CCc5cc(-c6ccc(C(N)=O)nc6)ccc53)C4)nc2c1 [Example 9F]
8.00,8.05,inverse agonist,–,–,NC(=O)c1ccc(-c2ccc3c(c2)CC[C@H]3N2CC3(CCN(C(=O)Cc4ccc(C5CC5)cn4)CC3)C2)cn1 [Example 10E]
7.80,7.85,inverse agonist,–,–,Cc1nn2cc(CC(=O)N3CCC4(CC3)CN([C@@H]3CCc5cc(-c6ccc(C(N)=O)nc6)ccc53)C4)nc2s1 [Example 10F]
7.22,7.27,inverse agonist,–,–,Cc1ccn2cc(CC(=O)N3CCC4(CC3)CN([C@@H]3CCc5cc(-c6cc(C(N)=O)ncn6)ccc53)C4)nc2c1 [Example 10G]
